US4713376A, “Dementia-improving and therapeutic agents” (Toyama Chemical Co., Ltd., priority 1985, dated 1987)

Experiments:
[1] = Mouse acute toxicity by intraperitoneal injection; details: in vivo, ip
From the text: (§1) Next, among the present compounds [I], α-acetoxy-α-methylaceticacid trimethylammonioethyl ester toluene-4-sulfonate (hereinafter referred to as ALT) and bis(α-acetoxy-α-methylacetic acid trimethylammonioethyl ester) naphthalene-1,5-disulfonate (general name: aclatonium napadisilate) were […] for mouse acute toxicity by intraperitoneal injection as well as for hygroscopicity and stability.

[2] = assay type: physicochemical; details: 10 days, relative humidity 55%; for Appearance: room temperature (30° C.); for Decomposition percentage: hydroxylamine method, 30° C.
Description: as §1
(§2) Stored for 10 days at room temperature (30° C.) at a relative
*2 Measured in accordance with the hydroxylamine method for ester (Jikken
Kagaku Koza, Vol. 24 Seibutsu Kagaku II, p 253 to 255, Maruzen).
Decomposition percentage (%) = [1 - (absorbance of test
sample)/(absorbance of standard solution)] × 100

[3] = Hygroscopicity on storage; assay type: physicochemical; details: (Increased weight)/(Original weight) × 100; 10 days, 30° C., relative humidity 55%
Description: as §1, §2
*1 Hygroscopicity (%) = (Increased weight)/(Original weight) × 100

dementia = experiment: Neuropsychiatric symptoms accompanying dementia and cognitive function, summary of clinical cases; assay type: in vivo, patients
Description: (§3) The degree of dementia was diagnosed in patients on the basis of DSM-III criteria with reference to the neuropsychiatric symptoms and findings of the CT scan of the head regions.
(§4) The overall improvement degree of the present drug was evaluated from the neuropsychiatric symptoms, scores of activity of daily living and Hasegawa's rating scales.

Alzheimer's disease = experiment: Clinical case, overall improvement degree and neuropsychiatric symptoms, Alzheimer's disease; assay type: in vivo, patients
Description: as §3, §4
Case two a person, Alzheimer's disease (Overall severity: Moderate degree)
They became occasionally aware of slight change of character from 8 years ago, and they lived without specific changes, but they became spiritless and not to express their feeling from 3 years ago. At the admission, they could not work entirely and was spiritless, and had contact disturbance with other patients, and decrease of memory power and judgement power were noted. […] The atrophy of anterior lobe was remarkably noted at the finding of CT scan of head regions at the admission.

patients = experiment: Side effects in the clinical cases; assay type: in vivo; details: all of the above clinical cases
[4] = test system: senile dementia of Alzheimer's type; experiment: Clinical cases, overall improvement degree and neuropsychiatric symptoms, senile dementia of Alzheimer's type; assay type: in vivo, patients
Description: as §3, §4
Case three senile dementia of Alzheimer's type (Overall severity: Marked high degree)
They began to have a forgetfulness from approx. 4 years ago, and became spiritless and became unable to work, and became not to express their feeling, and had wanderling impulsion. The cerebral atrophy was generally noted by the finding of CT scan of head regions at the admission.
Case four senile dementia of Alzheimer's type (Overall severity: Marked high degree)
They had occasionally a forgetfulness from approx. 10 years ago, and became unable to do agricultural work from approx. 4 years ago. The diffuse cerebral atrophy was noted by the finding of CT scan of head regions at the admission.
Case five senile dementia of Alzheimer's type (Overall severity: Moderate degree)
They began to have a forgetfulness from approx. 2 years ago, and became unable to do household affairs from 1 year ago, and became unable to distinguish their familial faces. The cerebral atrophy and enlargement of cerebral ventricle were noted by the finding of CT scan of head regions at the admission. The treatment was changed to the administration of 300 mg/day of the present drug because the efficacy was ineffective with other cerebral metabolic improvement drugs and cerebral-vasodilators.
Case one senile dementia of Alzheimer's type (overall severity: Moderate degree)
They began to have a forgetfulness and spiritlessness after operation of fracture of neck of femur from 10 years ago. The disorientation was strongly noted from 2-3 years ago. The cerebral atrophy and enlargement of cerebral ventricle were noted by the finding of CT scan of head regions at the admission. The efficacy was ineffective with other various drugs than the present drug.

[5] = Transference into brain and stimulation of cerebral metabolism; details: in vivo

CC(=O)OC(C)C(=O)OCC[N+](C)(C)C.Cc1ccc(S(=O)(=O)[O-])cc1 (stereo not drawn) [ALT, α-acetoxy-α-methylaceticacid trimethylammonioethyl ester toluene-4-sulfonate]
LD50 [1]: 657 mg/kg | Appearance [2]: No change | Decomposition percentage [2]: 0.5% | Hygroscopicity [3]: 0.6%

CC(=O)OC(C)C(=O)OCC[N+](C)(C)C (stereo not drawn) [Aclatonium napadisilate, bis(α-acetoxy-α-methylacetic acid trimethylammonioethyl ester) naphthalene-1,5-disulfonate]
effect on cognitive function (dementia; clinical cases): has not been confirmed at this time | improvement of neuropsychiatric symptoms accompanying dementia (dementia; clinical cases): effective | clinical effect (dementia; human, in vivo): confirmed | effect on severe dementia (dementia; human, in vivo): confirmed | defecation (Alzheimer's disease; Clinical Case 5): defecation became smooth | movement frequency and spontaneousness (Alzheimer's disease; Clinical Case 5, 4th week): increase of movement frequency and improvement of decrease of spontaneousness | overall improvement degree (Alzheimer's disease; Clinical Case 5, Moderate degree): improvement | side effect (patients): no side effect | neuropsychiatric symptoms and activity of daily living ([4]; Clinical Case 1, 300 mg/day, 2nd week): they could gait to outside of room at the 2nd week, and their movement behavior was improved, and spontaneousness increased and feeling became clear | overall improvement degree ([4]; Clinical Case 1, Marked high degree, 300 mg/day): improvement | neuropsychiatric symptoms (spontaneousness, conversation) ([4]; Clinical Case 2): spontaneousness increased, and conversation with other patients increased, and they had favorable communication and became fortunate | overall improvement degree ([4]; Clinical Case 2, Marked high degree): slight improvement | decrease of spontaneousness and disturbance of emotion ([4]; Clinical Case 3, 300 mg/day): improved | intellectual function ([4]; Clinical Case 3, 300 mg/day): No changes | activity of daily living and expression ([4]; Clinical Case 3, 300 mg/day, approx. 2nd week after administration): they became able to sit and gait, and eat food by themself and expression became clear | overall improvement degree ([4]; Clinical Case 3, Moderate degree, 300 mg/day): slight improvement | conversation frequency and activity of daily living ([4]; Clinical Case 4, 300 mg/day, from the 2nd week): their conversation frequency with other patients increased and they became able to go out from their room and occasionally go to toilet | overall improvement degree ([4]; Clinical Case 4, Moderate degree, 300 mg/day): slight improvement | cerebral metabolism [5]: stimulated | transference into brain [5]: found | LD50 [1]: 636 mg/kg | Appearance [2]: No change | Decomposition percentage [2]: 0.2% | Hygroscopicity [3]: 0.1%
